Type: physicochemical
Experimental: Substances B and C Evaporation Rate at Room Temperature Substances B and C were inserted in a thermostated chamber at room temperature and the substance weight/surface ratio for both of them was evaluated. Both substances B and C, alone or in mixture with a gel, were controlled and the loss of weight versus time was recorded. The resulting data of the test were interpolated so as to obtain two algorithms indicating, respectively, the evaporation rate of B and C. To this end two different interpolation methods were used. The algorithm adopted for the first interpolation method is: po/[…] uti (1) The algorithm adopted for the second interpolation method is: po/p=(A×T1⁄2)/(T1⁄2+min uti) (2) Parameters used in algorithms (1) and (2) have the following meaning: p: initial weight of the antibacterial substances expressed in g; po: weight of the antibacterial substances at time t, expressed in g; a, b, A: correlation parameters; and T1⁄2: half-life time of the antibacterial substances.

Substance	parameter T1/2 (half-life time of the antibacterial substances)
lavender oil [C: lavender oil]	46856
silvester pine oil [B: silvester pine oil]	854737
